Data published in US12624050B2, “Three fused ring derivative-containing salt or crystal form and pharmaceutical composition thereof” (Shanghai Hansoh Biomedical Co., Ltd., priority 2019, dated 2026).

Key:
PI3Kα = target: T1, PI3Kα (Homo sapiens, UniProt P42336); test: ADP-Glo Lipid Kinase Assay, PI3Kα kinase activity; format: biochemical
T1 construct: purchased Promega #V1721
Description: In this experiment, ADP-Glo Lipid Kinase Assay (Promega #V9102) from Promega was used. The lipid kinases PI3Kα/β/γ/δ catalyzed the ATP-to-ADP reaction in the presence of the substrate PIP2:3PS and ATP. The lipid kinase activity was characterized by measuring the ADP content in the reaction, and the half inhibition concentrations IC50 of the compounds on PI3Kα/β/γ/δ kinase activity were obtained.
Kinase reactions were carried out in white 384-well plates (Perkin Elmer #6007299). 2 μL of the compound of various concentrations diluted with ddH2O containing 1% DMSO was added to each well, and 2 μL of ddH2O containing 1% DMSO was added to positive control wells. […] After the reaction was carried out for 20 minutes at room temperature in the dark, the chemiluminescence was measured by BioTek Synergy H1 microplate reader.
The percentage inhibition data of the compound-treated well was calculated from positive control wells (DMSO control wells) and negative control wells (no kinase added) on the plate {% inhibition=100−[(test compound value−negative control value)]/(positive control value-negative control value)×100}. IC50 values were calculated using GraphPad prism and using a four-parameter nonlinear logistic formula to fit the data of different concentrations and corresponding percent inhibition.

SD rats = test: Toxicity test of a 7-day repeatedly intragastric administration in SD rats; format: in vivo; settings: 7 days; for tolerance compared with GDC-0077: SD rats, 10, 30 and 60 mg/kg once/day
Excerpt: (§1) • Test compound 1: GDC-0077 • Test compound 2: the compounds of Example 22 and Example 62 3.2.2 Vehicle • Name: 20% aqueousSBE-β-CD (Captisol) solution 3.2.3 Animal Information • Species & strains: Sprague-Dawley (SD) rat • Animal grade: SPF grade • Number and sex of animals: 160 rats, half male and half female. 3.2.4 Instruments • The ADVIA®2120 series Hematology System with Autoslide was used for blood cell counting; • The SYSMEX CA-500 Coagulation Analyzer was used for the detection of coagulation function indicators; • The TBA-120FR Automated Biochemical Analyzer was used for the detection of blood biochemical indicators; • The Easylyte Electrolyte Analyzer was used for the detection of electrolytes; • The liquid mass spectrometry detector model API4000; • The electron spray ionization (ESI) positive ion mode and column type Agilent ZORBAX XDB-C18 (3.5 μm, 2.1×50 mm) were used for bioanalytical detection of plasma samples. 3.3 Experimental Method • 1) In the experiment, 160 rats (80 rats/sex) were divided into 20 groups according to their sex and body weight, wherein 100 rats were used for toxicology study (groups 1 to 10, 5 rats/sex/group) and 60 rats were used for toxicokinetic study (groups 11 to 20, 3 rats/sex/group); • 2) As the vehicle control group, the animals in groups 1 and 11 were intragastrically administered 20% aqueous SBE-β-CD (Captisol) solution; • 3) The animals in groups 2 and 12, groups 3 and 13, and groups 4 and 14 were intragastrically administered 10, 30 and 60 mg/kg of GDC-0077, respectively; • 4) The animals in groups 5 and 15, groups 6 and 16, and groups 7 and 17 were intragastrically administered 10, 30 and 60 mg/kg of the compound of Example 22, respectively; • 5) The animals in groups 8 and 18, groups 9 and 19, groups 10 and 20 were intragastrically administered 10, 30 and 60 mg/kg of the compound of Example 62, respectively; • 5) The animals were administered once a day for 7 consecutive days (the animals in groups 7, 17, 10 and 20 were administered for 6 consecutive days). • 6) The administration volume was 10 mL/kg. • 7) During the experiment, items such as clinical observation, body weight, food intake, clinicopathological indicators (blood cell count, coagulation function, blood biochemistry), toxicokinetics and the like were studied. • 8) All animals were euthanized on Day 8 (the animals in groups 7, 10, 17 and 20 were euthanized after administration on Day 6). • 9) During the experiment, gross anatomical observation was performed on the animals in groups 1 to 10, animals in groups 17 and 20, and dead animals (including animals in toxicological study). Histopathological examination was performed on abnormal tissues, gastrointestinal tissues (such as colon, cecum) and immune tissues (such as thymus). […]

[1] = Toxicokinetics in the 7-day repeated intragastric administration study in SD rats; format: in vivo, Sprague-Dawley (SD) rat
Excerpt: as §1

[2] = Pharmacokinetic (PK) assay in mice, single intragastric administration; format: in vivo; settings: mouse, po, Balb/c male mice, 5 mg/kg, plasma; for AUC(0-t): read-out: Area under the curve AUC0-t; for AUC(0-inf): read-out: Area under the curve AUC0-∞; for half-life: read-out: Half life t1/2 (converted); for MRT: read-out: Mean residence time MRT; for Tmax: read-out: Peak time tmax; for Cmax: read-out: Plasma concentration Cmax
Description: The pharmacokinetic assay of the preferred compounds of the examples of the present invention in mice was carried out in Balb/c male mice (Shanghai Jiesijie Laboratory Animal Co., Ltd.).
5.1 Administration route: single intragastric administration.
5.2 Administration dose: 5 mg/10 ml/kg (body weight).
5.3 Formulation: the compound was dissolved in 0.5% CMC-Na by ultrasound to obtain a clear solution or a homogeneous suspension.
5.4 Sampling points: 0.5, 1, 2, 4, 6, 8 and 24 hours after administration.
• 1) 0.1 mL of orbital blood was collected and placed in a K2-EDTA test tube, centrifuged at 1000 to 3000×g at room temperature for 5 to 20 min to separate the plasma, which was then stored at −80° C. • 2) 160 uL of acetonitrile was added to 40 uL of plasma sample for precipitation. After mixing, the sample was centrifuged at 500 to 2000×g for 5 to 20 minutes. • 3) 100 uL of the supernatant after processing was taken and analyzed by LC/MS/MS assay to determine the concentrations of the example compound. 5.6 LC-MS/MS Assay: • Liquid chromatography condition: Shimadzu LC-20AD pump • Mass spectrometry condition: AB Sciex API 4000 mass spectrometer • Chromatographic column: phenomenex Gemiu 5 μm C18 50×4.6 mm • Mobile phase: solution A was 0.1% aqueous formic acid solution, and solution B was acetonitrile • Flow rate: 0.8 mL/min • Elution time: 0 to 4 minutes, gradient elution 5.7 Pharmacokinetics: […]

[3] = doses of 10, 30 and 60 mg/kg once/day

T1 sequence (P42336 whole entry): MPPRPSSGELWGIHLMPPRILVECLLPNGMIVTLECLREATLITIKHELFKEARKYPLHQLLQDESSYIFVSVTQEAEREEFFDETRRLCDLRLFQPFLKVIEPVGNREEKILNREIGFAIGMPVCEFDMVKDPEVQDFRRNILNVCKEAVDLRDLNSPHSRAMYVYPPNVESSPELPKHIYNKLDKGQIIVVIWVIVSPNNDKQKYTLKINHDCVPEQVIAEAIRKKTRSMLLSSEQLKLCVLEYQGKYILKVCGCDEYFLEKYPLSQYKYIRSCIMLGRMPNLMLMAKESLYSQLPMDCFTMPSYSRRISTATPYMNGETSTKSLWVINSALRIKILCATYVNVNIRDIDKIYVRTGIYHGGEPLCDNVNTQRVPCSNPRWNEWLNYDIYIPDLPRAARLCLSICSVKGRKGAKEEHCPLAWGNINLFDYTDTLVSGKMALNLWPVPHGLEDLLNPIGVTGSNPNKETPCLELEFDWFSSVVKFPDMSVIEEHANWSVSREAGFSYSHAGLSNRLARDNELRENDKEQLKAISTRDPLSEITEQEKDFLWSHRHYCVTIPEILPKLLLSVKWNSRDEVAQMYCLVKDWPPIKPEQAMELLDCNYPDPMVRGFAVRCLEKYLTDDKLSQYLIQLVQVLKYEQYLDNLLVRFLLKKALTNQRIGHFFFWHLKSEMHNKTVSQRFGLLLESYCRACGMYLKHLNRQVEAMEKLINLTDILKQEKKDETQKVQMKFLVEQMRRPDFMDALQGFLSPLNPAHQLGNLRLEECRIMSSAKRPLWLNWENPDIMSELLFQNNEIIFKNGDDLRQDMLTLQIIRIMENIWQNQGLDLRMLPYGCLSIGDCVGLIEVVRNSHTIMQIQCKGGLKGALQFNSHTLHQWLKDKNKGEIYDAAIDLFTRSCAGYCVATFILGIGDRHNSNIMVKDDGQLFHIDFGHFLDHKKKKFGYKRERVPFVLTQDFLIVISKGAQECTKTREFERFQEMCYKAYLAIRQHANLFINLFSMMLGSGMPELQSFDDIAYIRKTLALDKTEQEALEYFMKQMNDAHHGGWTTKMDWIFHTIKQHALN
T1 sequence (P27986 whole entry partner): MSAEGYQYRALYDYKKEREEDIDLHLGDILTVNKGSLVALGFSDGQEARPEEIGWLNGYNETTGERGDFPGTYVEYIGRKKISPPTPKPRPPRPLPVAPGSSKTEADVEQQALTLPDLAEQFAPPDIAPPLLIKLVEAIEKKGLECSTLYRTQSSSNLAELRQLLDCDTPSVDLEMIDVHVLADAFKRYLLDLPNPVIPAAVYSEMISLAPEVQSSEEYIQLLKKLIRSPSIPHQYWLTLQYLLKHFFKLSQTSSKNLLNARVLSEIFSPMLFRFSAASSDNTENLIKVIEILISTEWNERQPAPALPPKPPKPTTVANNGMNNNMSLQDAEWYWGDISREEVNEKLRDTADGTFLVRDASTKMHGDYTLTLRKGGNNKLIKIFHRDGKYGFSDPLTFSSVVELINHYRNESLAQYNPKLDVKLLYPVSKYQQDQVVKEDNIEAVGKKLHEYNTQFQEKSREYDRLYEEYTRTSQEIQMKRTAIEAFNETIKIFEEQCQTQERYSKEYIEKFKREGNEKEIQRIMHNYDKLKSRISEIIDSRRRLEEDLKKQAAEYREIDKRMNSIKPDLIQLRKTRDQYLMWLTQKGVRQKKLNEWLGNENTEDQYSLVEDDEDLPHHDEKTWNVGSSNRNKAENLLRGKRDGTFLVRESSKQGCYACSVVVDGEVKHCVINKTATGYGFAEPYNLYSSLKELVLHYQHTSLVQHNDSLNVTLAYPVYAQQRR

| Structure (SMILES) | IC50 (PI3Kα) | tolerance compared with GDC-0077 (SD rats) | Cmax and AUC(0-24 h) compared with GDC-0077 [1, 3] | AUC(0-t) [2] | AUC(0-inf) [2] | half-life [2] | MRT [2] | Tmax [2] | Cmax [2] | lethal dose (SD rats; SD rats, intragastric once/day) | systemic exposure compared with GDC-0077 at the same dose [1] | Cmax and AUC(0-24 h) compared with GDC-0077 ([1]; dose of 30 mg/kg) |
| --- | --- | --- | --- | --- | --- | --- | --- | --- | --- | --- | --- | --- |
| C[C@H](Nc1ccc2c(c1)SCCn1cc(N3C(=O)OC[C@H]3C(F)F)nc1-2)C(N)=O [Example 62, (S)-2-((2-((S)-4-(difluoromethyl)-2-oxooxazolidin-3-yl)-5,6-dihydrobenzo[f]imidazo[1,2-d][1,4]thiazepin-9-yl)amino)propionamide] | 0.1 nM | better than that of GDC-0077 | significantly higher than those of GDC-0077 | 3440 ng·h/mL | 3470 ng·h/mL | 1.5 h | 2.8 h | 0.5 h | 1250 ng/mL |  |  |  |
| C[C@H](Nc1ccc2c(c1)N(C)CCn1cc(N3C(=O)OC[C@H]3C(F)F)nc1-2)C(N)=O [Example 56, (S)-2-((2-((S)-4-(difluoromethyl)-2-oxooxazolidin-3-yl)-7-methyl-6,7-dihydro-5H-benzo[f]imidazo[1,2-d][1,4]diazoheptin-9-yl)amino)propionamide] | 0.5 nM |  |  | 1350 ng·h/mL | 1360 ng·h/mL | 1.6 h | 2.2 h | 0.5 h | 985 ng/mL |  |  |  |
| C[C@H](Nc1ccc2c(c1)OCCn1cc(N3C(=O)SC[C@H]3C(F)F)nc1-2)C(N)=O [Example 22, (S)-2-((2-((R)-4-(difluoromethyl)-2-oxothiazolidin-3-yl)-5,6-dihydrobenzo[f]imidazo[1,2-d][1,4]oxazepin-9-yl)amino)propionamide] |  | better than that of GDC-0077 | significantly higher than those of GDC-0077 |  |  |  |  |  |  | 60 mg/kg | significantly higher than that of GDC-0077 | significantly higher than those of GDC-0077 |
